From US8968784B2, “Method for preparing hydro/organo gelators from disaccharide sugars by biocatalysis and their use in enzyme-triggered drug delivery” (Research Foundation of the City University of New York, priority 2006, dated 2015) come the findings set out here.

In brackets after ≈: the same amount, converted by molar mass. Bounds are passed on as bounds.

Data set [1] can be described thus: Gelation ability in water and organic solvents (inverted tube, visual). The data set is classed as physicochemical. To be noted: for gel formation: highly polar solvents like water, methanol, and non-polar solvents like nonane, benzene, toluene. The protocol:
Typically, a gelator (0.01-2 mg) in a required solvent (0.1-1 mL) was heated until the solid was completely dissolved. The resulting solution was slowly allowed to cool to room temperature and gelation was visually observed. […] All gels obtained were thermally reversible. Above their gelation temperature, the gels dissolved in water but could be returned to their original gel state upon cooling.
Typically, the gelator (0.01-2 mg) and required solvent (0.1-1 mL) were placed into a 2 mL scintillation vial, which was then sealed with a screw cap. The vial was heated and shook until the solid was completely dissolved. The solution was set aside and allowed to cool to room temperature. Gelation was considered to have occurred when no gravitational flow in the inverted tube was observed.

A short description of data set [2]: Solubilization (encapsulation) of curcumin in hydrogel. The data set is classed as physicochemical. The following applies: 0.5 wt % hydrogel of derivative 3, aqueous with cosolvent or surfactant or cyclodextrin. The protocol: (§1) The release of curcumin into the solution in the presence of enzyme was monitored by measuring the curcumin UV-absorption spectrum. The absorption spectrum recorded in aqueous gel solution was compared with the curcumin spectra recorded in methanol. […] To test this hypothesis, water was added to the preformed gel and left for 12 hrs. The UV-absorption of the supernatant was recorded. […] XXVII. Cyclodextrin complexation: solubility, chemical and photochemical stability. Int. J. Pharm. 244, 127-135 (2002).

Data set [3] addresses T1, hydrolase enzyme (Lipolase 100L, Type EX) (Thermomyces lanuginosus, UniProt O59952).
T1 construct: purchased Lipolase 100L, Type EX
T1 sequence (O59952 23-291): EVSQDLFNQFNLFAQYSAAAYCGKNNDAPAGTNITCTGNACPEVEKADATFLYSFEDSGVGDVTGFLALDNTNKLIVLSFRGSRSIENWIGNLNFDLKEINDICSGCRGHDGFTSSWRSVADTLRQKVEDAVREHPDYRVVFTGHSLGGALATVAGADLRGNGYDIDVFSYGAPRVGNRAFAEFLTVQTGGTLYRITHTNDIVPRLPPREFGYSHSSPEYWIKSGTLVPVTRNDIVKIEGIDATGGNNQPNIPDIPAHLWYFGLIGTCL
In words: Enzyme-triggered gel degradation and curcumin release from hydrogel, monitored by UV absorption. To be noted: for curcumin release: room temperature. The protocol:
Solubilization of hydrophobic drugs and developing suitable drug delivery systems is a challenging task in drug discovery research.^18 A conceptual approach of single-step enzyme-triggered drug delivery at physiological conditions was performed where a hydrophobic drug molecule was encapsulated—solubilized without chemical modification—in a hydrogel and subsequent release of the drug by breaking the gel by using hydrolase enzyme (Lipolase 100L, Type EX). […] Drug release was monitored by absorbance spectra of the drug. Control of the drug release rate was achieved by manipulating the enzyme concentration and/or temperature. The by-products formed after the gel degradation were characterized and the cleavage site of the gelator by enzyme was determined. Gel degradation occurred due to the cleavage of the ester bond in the gelator by the hydrolase enzyme. ^18Miyata, T., Uragami, T. & Nakamae, K. Biomolecule-sensitive hydrogel. Adv. Drug Delivery Rev. 54, 79-98 (2002).
as §1
First, 0.5 mL of lipase—Lipolase 100L, Type EX, lipase units 100 KLU/g—was added to the preformed gel and kept at 37° C.—far lower than gel melting temperature. […] This was confirmed by spectroscopic experiments. Aliquots were collected after addition of an enzyme to the hydrogel after 10 min and 12 hrs and absorbance spectrum were recorded.
To find out the role of the enzyme on hydrogel degradation, similar experiments were carried out by adding only water without an enzyme. As expected, the curcumin-encapsulated gel was still intact after incubating for a few days at 37° C. There was no visual change in the gel volume and in the added solution. […] To this, 0.5 mL of lipolase was added and incubated at 37° C.
To obtain control on the rate of release, the role of enzyme concentration and temperature on gel degradation or controlled drug release was investigated. In a first set of experiments, the temperature was changed while keeping enzyme concentration constant. After addition of the enzyme to the preformed gel, the vial was kept at room temperature for two days, and as explained previously, curcumin release was monitored by absorption spectra.
In a second set of experiments, the enzyme concentration was changed while keeping the temperature constant. […] At room temperature, even after several days, there was no release. Then the vial was placed at 37° C. in incubation and took 300 min to start the drug release, which eventually took 4,320 min to release completely. In addition to this, a similar low enzyme concentrated vial was directly incubated at 45° C.
It is important to characterize the products/compounds formed after gel degradation. […] Upon gel degradation, a white fluffy solid was produced, which is not soluble in water, and thus settled down in the vial. The solid was isolated and characterized by ^1H-NMR, and it matched with the NMR of pure stearic acid. See FIG. 12, which is a comparison of the ^1H-NMR spectra of commercially available stearic acid and the white fluffy solid obtained after gel degradation, which was filtered, freeze-dried, and NMR recorded in Chloroform.

In general, solubility refers to the dissolved amount per volume that the medium holds. Higher therefore signals much dissolved substance.

Regarding Amygdalin Tetradecanoate [derivative 2], the gel formation entry in data set [1] was “formed gels”.

`COc1cc(/C=C/C(=O)CC(=O)/C=C/c2ccc(O)c(OC)c2)ccc1O` [curcumin]: the concentration in solution in data set [2] (solubility) came to 1000 µM (≈ 368 µg/mL). Also, the “time to complete curcumin release” value in data set [3] (lipase 100 KLU/g, 37° C.) is at most 720 min; in data set [3] (lipase 100 KLU/g, 45° C.), 270 min; in data set [3] (lipolase 10 KLU/g, 37° C.), 4,320 min; in data set [3] (lipolase 10 KLU/g, 45° C.), 2,880 min. For the same compound, the “time to start of curcumin release” value is listed as 120 min in data set [3] (lipase 100 KLU/g, 37° C.); at most 30 min in data set [3] (lipase 100 KLU/g, 45° C.); 300 min in data set [3] (lipolase 10 KLU/g, 37° C.); 180 min in data set [3] (lipolase 10 KLU/g, 45° C.). Also, the curcumin release entry in data set [3] (lipase 100 KLU/g, two days) was “no release”; in data set [3] (lipolase 10 KLU/g, several days), “no release”. Also, in data set [3] (water added to preformed gel of derivative 3, left 12 hrs, no enzyme), the “curcumin in supernatant (UV absorption)” value is on record as “Absence of any absorbance peak”.

As to Amygdalin Octadecanoate [derivative 3], in data set [3] (hydrogel of derivative 3 without curcumin, 0.5 mL lipolase, 37° C., after 12 hrs), the gel degradation entry is listed as “degraded completely”. The “site of gelator cleavage by enzyme (TLC, 1H-NMR of products)” value in data set [3] (products after gel degradation: amygdalin, stearic acid) was “cleaving the ester bond”. Also, the gel formation result in data set [1] is given as “formed gels”. Besides, the “Minimum gelation concentration (MGC)” value came out at 0.2 wt % in data set [1] (in benzene) and 0.05 wt % in data set [1] (in water). The “number of solvents gelled” value in data set [1] (ten solvents tested (water, polar and nonpolar organic solvents)) is “all ten solvents”.
